Results published in patent publication US20230404928A1, “NANOCAPSULE AND USES THEREOF” (CHINA MEDICAL UNIVERSITY, priority 2022, published 2023).

Columns and labels:
[1] = tested on: neural precursor cells (NPCs); assay: Ki-67 immunohistochemistry of brain sections (NPC proliferation, SVZ and HDG); format: in vivo, mice; details: SVZ and HDG areas, versus saline control
Source text: FIGS. 9A to 9D show representative images of Ki-67 staining after MTDS with MN treatment in comparison with saline control, free rt-PA, MTDS in SVZ area (FIG. 9A) and HDG area (FIG. 9B). (Scale bar=50 μm). Quantitative data of NPCs by immunohistochemistry staining in SVZ area (FIG. 9C) (Ki-67^+ cells) and HDG area (FIG. 9D) (Ki-67^+ cells).
The subventricular zone (SVZ) and hippocampal dentate gyrus (DG) are known to trigger the activation of resting neural precursor cells (NPCs) when the brain suffers from ischemic injury. NPCs mainly reside in the SVZ, while the DG has the ability to differentiate into a range of neurons and glial cells.

[2] = thrombolysis time and cerebral blood flow after MCAO; format: in vivo, mice; details: thrombus not completely dissolved
MACO mice = assay: as above; format: in vivo
[3] = drug release behavior study (rtPA release); format: physicochemical; details: in the first hour
Protocol: To measure the loading of rtPA (rtPA-FANC=(MTDS)) in FANC, analysis using […] protein analysis (BCA) was performed. The encapsulation efficiency (EE) of rtPA in FANC is 73.94% and the loading capacity (LC) is 22.49%. To observe the rtPA release rate of FANC, further drug release behavior studies were conducted. […] This slower release behavior can effectively protect rtPA from metabolic effects and reduce the damage caused in the blood circulation system.

recombinant tissue-type plasminogen activator [rtPA]
number of Ki-67^+ cells [1]: no significant difference
CBF recovery, maximum [2]: ≤ 90%
thrombolytic activity (MACO mice; FIG. 8a, right MCA images): able to dissolve the thrombus
time to partial thrombolysis (MACO mice; rtPA 10 mg kg^−1): approximately 80 minutes
blood flow restored (CBF) (MACO mice; within 120 minutes, rtPA 10 mg kg^−1): approximately 80%
rtPA release [3]: more than 60%
